This is an account of results in paper PMC3199943, “Screening the MayBridge Rule of 3 Fragment Library for Compounds That Interact with the Trypanosoma brucei myo-Inositol-3-Phosphate Synthase and/or Show Trypanocidal Activity” (Molecular Biology International, 2011).

Structures are written as SMILES. Counter-ions that a name gives are not always drawn. Like-named read-outs stand apart in the source and are kept apart here.

One assay has as its system HeLa cells. Description: cells. Particulars: for CC50 / viability at 500 µM: Homo sapiens, HeLa; for CC50: read-out: HeLa ED50; for viability at 500 µM: 65 h. As to the method: (§1) Cytotoxic effects against HeLa and A549 cells were determined in a similar manner. Briefly, the cells were cultured in DMEM supplemented with 10% FCS and 2 mM L-Glutamine. Cells were plated at initial cell concentration of 2 × 10^4 cells/well and incubated with the compounds for ~65 hours prior to addition of Alamar Blue solution for a further 5 hours.

In the next assay the test system is A549 cells. Description: Cytotoxicity against A549 cells, Alamar Blue. It is filed as cell-based. Particulars: Supplementary Table 1, compound 0.5 mM, percentage of controls (n=1); for viability at 500 µM: Homo sapiens, A549, 65 h. On the procedure: as §1
(In general: Resazurin is reduced to fluorescent resorufin, in cell work by metabolically active cells.)

Where [1] appears, read: read-out: HeLa Cells Alamar Blue.
Setting [2] is: read-out: HeLa Cells Alamar Blue, Supplementary Table 1, compound 0.5 mM, percentage of controls, mean ± SD (n=3) or SE (n=2).

For `Nc1ccccc1N` [269a, benzene-1,2-diamine], the CC50 with HeLa cells came out at 32.9 ± 2.5 µM.

With `Nc1ccc(Cl)c(F)c1` [269b], the CC50 in the assay on HeLa cells amounted to 1400 ± 100 µM.

Take `Nc1ccc(Cl)cc1N` [269c]: the CC50 in the assay with HeLa cells was determined as 224 ± 35 µM.

Take `Fc1cc2nc[nH]c2cc1Cl` [269d]: in the assay on HeLa cells, the CC50 is 520 ± 52 µM.

On to `Nc1ccccc1O` [269e, 2-amino-phenol], for which, in the assay on HeLa cells, the CC50 came to 68.2 ± 3.2 µM.

For `Nc1ccncc1` [compound 2, pyridin‐4‐amine], the viability at 500 µM in the assay on HeLa cells (setting [1]) was 103 ± 2.2%; in the assay with A549 cells, 106%.

Regarding `N#CN1CCCC1` [compound 3, pyrrolidine‐1‐carbonitrile], the viability at 500 µM amounted to 88.5 ± 1.3% in the assay on HeLa cells (setting [1]) and 115% in the assay with A549 cells.

Regarding `Cc1cc(C)on1` [compound 4, 3,5‐dimethylisoxazole], the viability at 500 µM amounted to 108 ± 5.3% in the assay on HeLa cells (setting [1]) and 123% with A549 cells.

With `Cc1cc(N)on1` [compound 10, 3‐methylisoxazol‐5‐amine], the results for the viability at 500 µM with HeLa cells (setting [1]) and in the assay with A549 cells were 66 ± 4.6% and 87.2%, respectively.

As for `Cc1cc(C)n(C)n1` [compound 24, 1,3,5‐trimethyl‐1H‐pyrazole], the values for the viability at 500 µM in the assay with HeLa cells (setting [1]) and in the assay on A549 cells were 99.7 ± 11.5% and 88.5%, respectively.

As to `CCc1nc(C)c[nH]1` [compound 25, 2‐ethyl‐4‐methyl‐1H‐imidazole], the results for the viability at 500 µM in the assay with HeLa cells (setting [1]) and in the assay with A549 cells were 98 ± 7.8% and 83.9%, respectively.

As to `Cc1noc(N)c1C` [compound 32, 3,4‐dimethylisoxazol‐5‐amine], the viability at 500 µM in the assay on HeLa cells (setting [1]) stood at 76.4 ± 5.7%; in the assay on A549 cells it was 71.7%.

`Cc1cc(CN)no1` [compound 33, (5‐methyl‐3‐isoxazolyl)methylamine]: the viability at 500 µM in the assay with HeLa cells (setting [1]) came to 64.3 ± 18.4%; in the assay on A549 cells, 75.6%.

Regarding `Cn1ccnc1CO` [compound 34, (1‐methyl‐1H‐imidazol‐2‐yl)methanol], the viability at 500 µM in the assay on HeLa cells (setting [1]) stood at 97 ± 14%; in the assay on A549 cells it was 72.1%.

Turning to `OCC1CCNCC1` [compound 40, 4‐piperidylmethanol], the figures for the viability at 500 µM in the assay with HeLa cells (setting [1]) and in the assay on A549 cells were 84.3 ± 9% and 104%, respectively.

As for `OCC1CCOCC1` [compound 43, tetrahydro‐2H‐pyran‐4‐ylmethanol], the viability at 500 µM in the assay with HeLa cells (setting [1]) was 91.9 ± 5.9%; in the assay with A549 cells, 79.2%.

On to `COC(=O)C1NCCS1` (stereo not shown) [compound 44, methyl 1,3-thiazolane-2-carboxylate hydrochloride], for which the viability at 500 µM in the assay on A549 cells was 87%.

Consider `OC1CCSCC1` [compound 47, tetrahydro‐2H‐thiopyran‐4‐ol], for which the figures for the viability at 500 µM in the assay on HeLa cells (setting [1]) and in the assay on A549 cells were 95 ± 10% and 74.9%, respectively.

Turning to `Clc1ccsc1` [compound 48, 3‐chlorothiophene], the values for the viability at 500 µM in the assay on HeLa cells (setting [1]) and in the assay with A549 cells were 95.5 ± 2% and 101%, respectively.

`c1ccc2c(c1)CCO2` [compound 49, 2,3‐dihydrobenzo[b]furan]: the viability at 500 µM in the assay with HeLa cells (setting [1]) stood at 102 ± 8.6%; in the assay with A549 cells, 87.3%.

For `N#CCCn1cccc1` [compound 50, 3‐(1H‐pyrrol‐1‐yl)propanenitrile], the viability at 500 µM in the assay on HeLa cells (setting [1]) was 75.4 ± 6.4%; in the assay on A549 cells, 140%.

As for `Cc1cccc(N)c1N` [compound 55, 3‐methylbenzene‐1,2‐diamine], the viability at 500 µM was found to be 11.2 ± 7.2% with HeLa cells (setting [1]) and 26.5% in the assay on A549 cells.

Take `CNCc1cccnc1` [compound 57, N‐methyl‐N‐(3‐pyridylmethyl)amine]: the values for the viability at 500 µM in the assay on HeLa cells (setting [1]) and in the assay on A549 cells were 89.3 ± 9.6% and 79%, respectively.

Regarding `O=C(O)c1ccccn1` [compound 58, 2‐pyridinecarboxylic acid], the viability at 500 µM with HeLa cells (setting [1]) was found to be 87.3 ± 6.1%; in the assay with A549 cells, 97.9%.

Turning to `O=C(O)c1ccncc1` [compound 60, isonicotinic acid], the viability at 500 µM with HeLa cells (setting [1]) was determined as 98.3 ± 12.5%; with A549 cells, 118%.

As for `Cc1cccc(CO)n1` [compound 62, (6‐methylpyridin‐2‐yl)methanol], the viability at 500 µM came to 98.6 ± 7.3% in the assay on HeLa cells (setting [1]) and 67.5% with A549 cells.

Consider `OCCc1cccnc1` [compound 63, 2‐(3‐pyridyl)ethan‐1‐ol], for which the viability at 500 µM with HeLa cells (setting [1]) amounted to 105 ± 13.1%; in the assay with A549 cells, 76.9%.

As for `N#Cc1ccsc1N` [compound 68, 2‐aminothiophene‐3‐carbonitrile], the viability at 500 µM in the assay on HeLa cells (setting [1]) was 102 ± 3.1%; with A549 cells it was 136%.

With `Cn1cccc1C(=O)O` [compound 69, 1‐methyl‐1H‐pyrrole‐2‐carboxylic acid], the values for the viability at 500 µM in the assay with HeLa cells (setting [1]) and in the assay on A549 cells were 95.3 ± 2.5% and 70.2%, respectively.

On to `NCc1cccc(F)c1` [compound 70, 3‐fluorobenzylamine], for which the viability at 500 µM in the assay on HeLa cells (setting [1]) is 104 ± 17.4%; in the assay on A549 cells, 104%.

In the case of `NCc1ccc(F)cc1` [compound 71, 4‐fluorobenzylamine], the results for the viability at 500 µM with HeLa cells (setting [1]) and with A549 cells were 93.3 ± 10.3% and 110%, respectively.

In the case of `Cc1cc(CN)n(C)n1` [compound 73, (1,3‐dimethyl‐1H‐pyrazol‐5‐yl)methylamine], the “HeLa Cells Alamar Blue” value with HeLa cells (Supplementary Table 1, compound 0.5 mM, percentage of controls, mean ± SD (n=3) or SE (n=2)) is recorded as 91.3 ± 0.6 percentage of controls. Moreover, in the assay on A549 cells, the “A549 Cells Alamar Blue” value is reported as 107.6 percentage of controls.

Consider `CC(=O)c1nccs1` [compound 79, 1‐(1,3‐thiazol‐2‐yl)ethan‐1‐one], for which the viability at 500 µM in the assay on HeLa cells (setting [1]) stood at 103 ± 16.6%; in the assay on A549 cells, 94.5%.

For `NC(=O)c1cccs1` [compound 80, thiophene‐2‐carboxamide], the viability at 500 µM in the assay on HeLa cells (setting [1]) came to 106 ± 17.5%; with A549 cells, 90.3%.

With `O=C(O)c1cccs1` [compound 85, thiophene‐2‐carboxylic acid], the viability at 500 µM in the assay on HeLa cells (setting [1]) is 100 ± 7.4%; in the assay with A549 cells, 119%.

With `O=C(O)C1CCCNC1` (stereo not shown) [compound 91, 3-piperidinecarboxylic acid], the viability at 500 µM came out at 76.6 ± 29.1% in the assay on HeLa cells (read-out: HeLa Cells Alamar Blue (% survival), compound 0.5 mM, percentage of controls); 76.6 ± 29.1% in the assay on HeLa cells (setting [2]); 103% in the assay with A549 cells.

With `O=C(O)C1CCOCC1` [compound 92, tetrahydro‐2H‐pyran‐4‐carboxylic acid], the viability at 500 µM turned out to be 78.4 ± 15.8% with HeLa cells (setting [1]) and 118% with A549 cells.

`Cc1cccc2cc[nH]c12` [compound 95, 7‐methyl‐1H‐indole]: the viability at 500 µM worked out at 11.9 ± 8.8% in the assay on HeLa cells (setting [1]) and 13.4% with A549 cells.

As for `Nc1ccc2[nH]ncc2c1` [compound 101, 1H‐indazol‐5‐amine], the viability at 500 µM is 31.7 ± 16.2% in the assay with HeLa cells (setting [1]) and 70.6% with A549 cells.

With `FC(F)(F)c1cc[nH]n1` [compound 114, 3‐(trifluoromethyl)‐1H‐pyrazole], the viability at 500 µM amounted to 85.9 ± 6.1% in the assay on HeLa cells (setting [1]) and 73.8% with A549 cells.

For the compound `Cc1ccc(CO)cc1C` [compound 119, (3,4‐dimethylphenyl)methanol], the viability at 500 µM was 84.7 ± 15.3% in the assay with HeLa cells (setting [1]) and 124% in the assay on A549 cells.

As for `NCCOc1ccccc1` [compound 122, 2‐phenoxyethylamine], the viability at 500 µM with HeLa cells (setting [1]) came out at 73.6 ± 5.4%; in the assay with A549 cells it was 100%.

Take `CC(=O)c1cccc(F)c1` [compound 125, 1‐(3‐fluorophenyl)ethan‐1‐one]: the viability at 500 µM in the assay on HeLa cells (setting [1]) came out at 83 ± 14.8%; with A549 cells it was 101%.

Turning to `Cc1nc(CCN)cs1` [compound 141, 2‐(2‐methyl‐1,3‐thiazol‐4‐yl)ethylamine], the viability at 500 µM with HeLa cells (setting [1]) was found to be 98.9 ± 7.6%; with A549 cells, 105%.

As to `c1ccc(-c2c[nH]cn2)cc1` [compound 149, 4‐phenyl‐1H‐imidazole], the viability at 500 µM with HeLa cells (setting [1]) amounted to 80.2 ± 11.7%; in the assay with A549 cells it was 99.1%.

Take `c1ccc(-c2cc[nH]n2)cc1` [compound 150, 3‐phenyl‐1H‐pyrazole]: the viability at 500 µM in the assay on HeLa cells (setting [1]) was found to be 74.6 ± 17.7%; in the assay on A549 cells, 82%.

`CN1CCN(C)C(CO)C1` (stereo not shown) [compound 154, (1,4‐dimethyl‐2‐piperazinyl)methanol]: the viability at 500 µM came to 96.9 ± 6.4% in the assay with HeLa cells (setting [1]) and 117% in the assay with A549 cells.

Consider `Cn1ccc2cc(N)ccc21` [compound 158, 1‐methyl‐1H‐indol‐5‐amine], for which the viability at 500 µM in the assay on HeLa cells (setting [1]) came to 12.5 ± 9.1%; in the assay on A549 cells it was 59.3%.

Take `COc1ccc(CC#N)cc1` [compound 161, 2‐(4‐methoxyphenyl)acetonitrile]: the viability at 500 µM with HeLa cells (setting [2]) is 108 ± 3.1%; in the assay with A549 cells it was 88.7%.

For the compound `NCc1ccc2occc2c1` [compound 165, 1‐benzofuran‐5‐ylmethylamine], the viability at 500 µM with HeLa cells (setting [1]) was 92.6 ± 8.6%; in the assay with A549 cells, 90.7%.

As for `OCc1cc2ccccc2o1` [compound 167, 1‐benzofuran‐2‐ylmethanol], the viability at 500 µM in the assay on HeLa cells (setting [1]) turned out to be 84.9 ± 19.3%; in the assay with A549 cells, 78.2%.

As to `Cc1ccc(O)c2c1CCC2` [compound 173, 7‐methylindan‐4‐ol], the viability at 500 µM in the assay on HeLa cells (setting [1]) came out at 43.2 ± 15.6%; in the assay with A549 cells, 53.7%.

`Cc1ccc(C(N)=O)cc1C` [compound 177, 3,4‐dimethylbenzamide]: the figures for the viability at 500 µM with HeLa cells (setting [1]) and in the assay on A549 cells were 81.7 ± 16.8% and 64.2%, respectively.

Consider `CC(C)(C)c1ccc(N)cc1` [compound 178, 4‐(tert‐butyl)aniline], for which the viability at 500 µM in the assay on HeLa cells (setting [1]) came out at 109 ± 18.8%; with A549 cells, 87.6%.

Consider `CC(C)(C)c1cccc(N)c1` [compound 179, 3‐(tert‐butyl)aniline], for which the results for the viability at 500 µM in the assay on HeLa cells (setting [1]) and with A549 cells were 99.3 ± 14.7% and 77.9%, respectively.

For the compound `OCC1Cc2ccccc2O1` (stereo not shown) [compound 187, 2,3‐dihydro‐1‐benzofuran‐2‐ylmethanol], the viability at 500 µM was 94.3 ± 13.3% in the assay with HeLa cells (setting [1]) and 50.5% in the assay on A549 cells.

As to `NC(=O)Cc1ccc(O)cc1` [compound 192, 2‐(4‐hydroxyphenyl)acetamide], the results for the viability at 500 µM in the assay with HeLa cells (setting [1]) and in the assay with A549 cells were 96.9 ± 9.5% and 44.6%, respectively.
